We go through six molecules from article PMC10096163, “Structural Insights and Intermolecular Energy for Some Medium and Long-Chain Testosterone Esters” (Molecules, 2023).

Converted amounts (≈) assume the structure as drawn. Like-named read-outs stand apart in the source and are kept apart here.

Data set [1] can be described thus: Solubility of esters in benzyl alcohol / benzyl benzoate / oil mixtures. The data set is classed as physicochemical. The conditions noted are these: for solubility: oil or lipid, thermodynamic from solid. The procedure: The esters’ solubility (mg/mL) was evaluated in mixtures which included different solvents and organic oils, such as medium-chain triglyceride (MCT), apricot, grape seed (GSO), castor, cottonseed, […] sesame oil.
The solutions contained mixtures of benzyl alcohol, benzyl benzoate and oil, with a volumetric ratio of 2% benzyl alcohol, 20% benzyl benzoate and 78% oil. Numerous pharmaceuticals of various lipophilic agents (various steroids were included) use benzyl benzoate as a co-solvent/solubilizer; benzyl alcohol behaves as well as a solvent and inhibits the microbial growth, and meanwhile the oils act as carriers.
In certain cases, an excess of raw samples remained undissolved (in suspension) and small quantities of mixtures were added, ensuring that the resulting solutions became homogenous, clear and transparent. Three measurements were taken to improve accuracy, and their average value was used.

The conditions of data set [2]: cited from earlier work.
Details of data set [3]: method as in PMID 36295310. The conditions noted are these: short esters, previously reported; cited from earlier work.
[4] abbreviates: 14 °C, 2% benzyl alcohol, 20% benzyl benzoate, 78% medium-chain triglyceride, 14 °C, average of three measurements, read-out: Solubility MCT.
The mark [5] stands for this setting: 14 °C, average over the six oil mixtures, 14 °C, read-out: Average solubility.
Where [6] appears, read: benzyl alcohol / benzyl benzoate / apricot oil mixture, 14 °C, 2% benzyl alcohol, 20% benzyl benzoate, 78% apricot oil, 14 °C, average of three measurements, read-out: Solubility APRICOT.
[7] abbreviates: benzyl alcohol / benzyl benzoate / castor oil mixture, 14 °C, 2% benzyl alcohol, 20% benzyl benzoate, 78% castor oil, 14 °C, average of three measurements, read-out: Solubility CASTOR.
[8] abbreviates: benzyl alcohol / benzyl benzoate / cottonseed oil mixture, 14 °C, 2% benzyl alcohol, 20% benzyl benzoate, 78% cottonseed oil, 14 °C, average of three measurements, read-out: Solubility COTTON.
Setting [9] is: benzyl alcohol / benzyl benzoate / grape seed oil mixture, 14 °C, 2% benzyl alcohol, 20% benzyl benzoate, 78% grape seed oil, 14 °C, average of three measurements, read-out: Solubility GSO.
[10] abbreviates: benzyl alcohol / benzyl benzoate / sesame oil mixture, 14 °C, 2% benzyl alcohol, 20% benzyl benzoate, 78% sesame oil, 14 °C, average of three measurements, read-out: Solubility SESAME.
The mark [11] stands for this setting: esterified form, intramuscular or subcutaneous injection.

Usually solubility stands for the dissolved amount per volume that the medium holds. Regarding `C[C@]12CC[C@H]3[C@@H](CCC4=CC(=O)CC[C@@]43C)[C@@H]1CC[C@@H]2OC(=O)CCC1CCCC1` [TCyp, Androst-4-en-17β-ol-3-one 17β-cyclopentylpropionate], the solubility in data set [1] (setting [4]) was 257 mg/mL (≈ 623 mM); in data set [1] (setting [5]), ~255 mg/mL (≈ 618 mM); in data set [1] (setting [6]), 238 mg/mL (≈ 576 mM); in data set [1] (setting [7]), 287 mg/mL (≈ 695 mM); in data set [1] (setting [8]), 236 mg/mL (≈ 573 mM); in data set [1] (setting [9]), 239 mg/mL (≈ 580 mM). Also, in data set [1] (setting [10]), the solubility is 278 mg/mL (≈ 674 mM).

On to `CCCCCCCCCC(=O)OC1CCC2C3CCC4=CC(=O)CCC4(C)C3CCC12C` (stereo not drawn) [TDec, Androst-4-en-17β-ol-3-one 17β-decanoate], for which the solubility in data set [1] (setting [4]) was 597 mg/mL (≈ 1350 mM); in data set [1] (setting [5]) it was 534 mg/mL (≈ 1210 mM); in data set [1] (setting [6]), 537 mg/mL (≈ 1210 mM); in data set [1] (setting [7]), 530 mg/mL (≈ 1200 mM); in data set [1] (setting [8]) it was 496 mg/mL (≈ 1120 mM); in data set [1] (setting [9]) it was 497 mg/mL (≈ 1120 mM). In addition, the solubility in data set [1] (setting [10]) is 549 mg/mL (≈ 1240 mM). For the same molecule, the “Solubility fold greater than the other esters” value in data set [1] (TDec compared with TCyp and TUnd, average solubility) is recorded as 2.5–3 fold.

`C[C@]12CC[C@H]3[C@@H](CCC4=CC(=O)CC[C@@]43C)[C@@H]1CC[C@@H]2O` [Testosterone, 17β-Hydroxyandrost-4-en-3-one]: in data set [2] (non-esterified testosterone), the Half-life result is on record as “a few hours”.

Regarding `CC(C)CCC(=O)O[C@H]1CC[C@H]2[C@@H]3CCC4=CC(=O)CC[C@]4(C)[C@H]3CC[C@]12C` [isocaproate], the “Solubility, averaging” value in data set [3] was 447 mg/mL (≈ 1160 mM).

In the case of `CC(=O)O[C@H]1CC[C@H]2[C@@H]3CCC4=CC(=O)CC[C@]4(C)[C@H]3CC[C@]12C` [testosterone acetate], in data set [3], the “Solubility, averaging” value is 110 mg/mL. Also, the Half-life result in data set [2] (setting [11]) is “less than 24 h”.

For the molecule “Androst-4-en-17β-ol-3-one 17β-undecanoate [TUnd]”, the “Solubility APRICOT” value in data set [1] (2% benzyl alcohol, 20% benzyl benzoate, 78% apricot oil, 14 °C, average of three measurements) is recorded as 200.1 mg/mL. In addition, in data set [1] (2% benzyl alcohol, 20% benzyl benzoate, 78% castor oil, 14 °C, average of three measurements), the “Solubility CASTOR” value is recorded as 196.3 mg/mL. For the same molecule, in data set [1] (2% benzyl alcohol, 20% benzyl benzoate, 78% cottonseed oil, 14 °C, average of three measurements), the “Solubility COTTON” value came out at 195.5 mg/mL. Further, the “Solubility GSO” value in data set [1] (2% benzyl alcohol, 20% benzyl benzoate, 78% grape seed oil, 14 °C, average of three measurements) is listed as 183.1 mg/mL. For the same molecule, in data set [1] (2% benzyl alcohol, 20% benzyl benzoate, 78% medium-chain triglyceride, 14 °C, average of three measurements), the “Solubility MCT” value amounted to 201.8 mg/mL. In addition, the “Solubility SESAME” value in data set [1] (2% benzyl alcohol, 20% benzyl benzoate, 78% sesame oil, 14 °C, average of three measurements) is listed as 209.1 mg/mL. Moreover, the Average solubility result in data set [1] (average over the six oil mixtures, 14 °C) was “roughly 197 mg/mL”. In addition, in data set [2] (setting [11]), the Half-life entry is reported as “up to 36 days”.
